Among the test systems are NCI-H23 lung; HT29 colon; HCT-15 colon; SK-OV-3 ovarian; UACC-62 melanoma; RPMI-8226 leukemia; OVCAR-3 ovarian; SK-MEL-2 melanoma; RXF 393 renal; DU-145 prostate.
Holding throughout (test): growth of human tumour cells (NCI), 48 h

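These data come from cells grown in 96-well plates and exposed to compound for 48 hours at five concentrations. The concentration for 50% growth inhibition is given as GI50. TGI: total growth inhibition.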

In the case of `C#CCN(Cc1nc2cc(C(F)(F)F)ccc2nc1-c1ccccc1)c1ccc(OC(F)(F)F)cc1`, the GI50 with NCI-H23 lung was 60.5 µM; with HT29 colon, 40.3 µM; in the assay with HCT-15 colon, more than 100 µM; with SK-OV-3 ovarian it was more than 100 µM; in the assay on UACC-62 melanoma, 48.6 µM; in the assay on RPMI-8226 leukemia, 23.3 µM. In addition, the GI50 is 49.1 µM in the assay with OVCAR-3 ovarian, more than 100 µM in the assay with SK-MEL-2 melanoma, 46.7 µM with RXF 393 renal and 36.5 µM in the assay with DU-145 prostate. Further, the TGI with NCI-H23 lung, in the assay on HT29 colon, in the assay on HCT-15 colon, in the assay with SK-OV-3 ovarian, with UACC-62 melanoma and with RPMI-8226 leukemia was more than 100 µM throughout. Also, the TGI with OVCAR-3 ovarian, in the assay on SK-MEL-2 melanoma, in the assay on RXF 393 renal and in the assay with DU-145 prostate was more than 100 µM throughout.
As for `Fc1ccc(-c2nn3c(-c4ccc(F)c(Cl)c4)nnc3s2)cc1`, the GI50 with NCI-H23 lung was more than 50 µM; with HT29 colon it was 22.9 µM; in the assay with HCT-15 colon, 22.7 µM; in the assay on SK-OV-3 ovarian, 19.4 µM; in the assay with UACC-62 melanoma, 34.8 µM; in the assay on RPMI-8226 leukemia it was 22.8 µM. Moreover, the GI50 in the assay on OVCAR-3 ovarian is more than 50 µM; in the assay with SK-MEL-2 melanoma, more than 50 µM; in the assay with RXF 393 renal, 0.688 µM; in the assay with DU-145 prostate, 36.3 µM. The TGI in the assay with NCI-H23 lung, with HT29 colon, in the assay on HCT-15 colon, with SK-OV-3 ovarian, in the assay with UACC-62 melanoma and in the assay on RPMI-8226 leukemia was more than 50 µM throughout. Besides, the TGI was more than 50 µM in the assay on OVCAR-3 ovarian, more than 50 µM with SK-MEL-2 melanoma, 18.7 µM with RXF 393 renal and more than 50 µM in the assay on DU-145 prostate.
Take `CCC1C(=O)OCc2c1cc1n(c2=O)Cc2cc3ccccc3nc2-1` (stereo not given): the TGI is 10.6 µM with NCI-H23 lung; more than 100 µM in the assay with HT29 colon; more than 100 µM in the assay with HCT-15 colon; more than 100 µM with SK-OV-3 ovarian; more than 37.6 µM in the assay with UACC-62 melanoma; more than 100 µM with RPMI-8226 leukemia. Further, the TGI in the assay on OVCAR-3 ovarian is more than 100 µM; with SK-MEL-2 melanoma, more than 100 µM; in the assay on RXF 393 renal it was more than 94.9 µM; in the assay on DU-145 prostate it was more than 30.9 µM.
With `CC(=O)CCc1ccc(OC2OC(COC(=O)c3cc(O)c(O)c(O)c3)C(O)C(O)C2OC(=O)/C=C/c2ccccc2)cc1` (stereo not given), the GI50 in the assay on NCI-H23 lung was 17.5 µM; in the assay on HT29 colon it was 29.6 µM; with HCT-15 colon, 26.2 µM; in the assay with SK-OV-3 ovarian it was 29.8 µM; in the assay on UACC-62 melanoma, 18.4 µM; with RPMI-8226 leukemia, 23.7 µM. In addition, the GI50 in the assay with OVCAR-3 ovarian is 23.8 µM; with SK-MEL-2 melanoma, 20.2 µM; in the assay with RXF 393 renal, 19 µM; in the assay with DU-145 prostate it was 23.5 µM. Also, the TGI was 38.6 µM with NCI-H23 lung; 82.2 µM with HT29 colon; more than 100 µM in the assay on HCT-15 colon; 68.5 µM in the assay on SK-OV-3 ovarian; 32.6 µM with UACC-62 melanoma; 85.3 µM with RPMI-8226 leukemia. The TGI in the assay on OVCAR-3 ovarian came to 72.4 µM; in the assay on SK-MEL-2 melanoma it was 43 µM; in the assay on RXF 393 renal it was 47.2 µM; in the assay with DU-145 prostate, 42.8 µM.
Turning to `CC(C)Nc1ccc(Nc2ccccc2)cc1`, the GI50 in the assay on NCI-H23 lung is 14.2 µM; with HT29 colon it was 17 µM; in the assay on HCT-15 colon it was 21.5 µM; with SK-OV-3 ovarian, 39.9 µM; in the assay with UACC-62 melanoma it was 11.6 µM; in the assay on RPMI-8226 leukemia, 3.68 µM. Further, the GI50 in the assay with OVCAR-3 ovarian is 9.49 µM; in the assay on SK-MEL-2 melanoma it was 25.6 µM; in the assay with RXF 393 renal, 8.81 µM; in the assay with DU-145 prostate, 26.2 µM. Further, the TGI in the assay on NCI-H23 lung was 65.3 µM; in the assay with HT29 colon it was 48.4 µM; in the assay on HCT-15 colon it was 77 µM; with SK-OV-3 ovarian, more than 100 µM; in the assay with UACC-62 melanoma, 51.6 µM; in the assay on RPMI-8226 leukemia, 19.5 µM. The TGI was 21.8 µM with OVCAR-3 ovarian, 66.3 µM in the assay with SK-MEL-2 melanoma, 24.6 µM with RXF 393 renal and more than 100 µM in the assay on DU-145 prostate.
With `CC(=O)Nc1ccc(/C=C/C(=O)c2ccccc2)cc1`, the GI50 was 17.5 µM in the assay on NCI-H23 lung; 8.29 µM with HT29 colon; 7.54 µM with HCT-15 colon; 27.1 µM in the assay with SK-OV-3 ovarian; 17.8 µM with UACC-62 melanoma; 3.69 µM in the assay on RPMI-8226 leukemia. The GI50 with OVCAR-3 ovarian is 7.41 µM; in the assay with SK-MEL-2 melanoma it was 19.7 µM; in the assay with RXF 393 renal it was 13.9 µM; with DU-145 prostate, 3.13 µM. Also, the TGI in the assay with NCI-H23 lung was 43.2 µM; with HT29 colon it was 24.9 µM; in the assay with HCT-15 colon, 37.4 µM; in the assay on SK-OV-3 ovarian, 96 µM; in the assay on UACC-62 melanoma, 39.2 µM; in the assay with RPMI-8226 leukemia, 17.8 µM. The TGI amounted to 20.1 µM with OVCAR-3 ovarian, 35.5 µM with SK-MEL-2 melanoma, 27.5 µM in the assay with RXF 393 renal and 10.6 µM with DU-145 prostate.
With `CCCCCCc1cc2cc(-c3nc4ccccc4[nH]3)c(=Nc3ccccc3C)oc2cc1O`, the GI50 is 2.46 µM in the assay with NCI-H23 lung; more than 100 µM in the assay on HT29 colon; 2.17 µM in the assay on HCT-15 colon; 3.57 µM in the assay with SK-OV-3 ovarian; 1.62 µM in the assay on UACC-62 melanoma; 2.47 µM in the assay on RPMI-8226 leukemia. Also, the GI50 with OVCAR-3 ovarian was 1.77 µM; in the assay with SK-MEL-2 melanoma it was 2.75 µM; in the assay with RXF 393 renal, 1.85 µM; in the assay on DU-145 prostate it was 2.96 µM. Besides, the TGI with NCI-H23 lung is 5.87 µM; in the assay with HT29 colon it was more than 100 µM; in the assay with HCT-15 colon it was 5.34 µM; in the assay on SK-OV-3 ovarian, 13.7 µM; in the assay on UACC-62 melanoma, 3.41 µM; with RPMI-8226 leukemia, 7.86 µM. The TGI in the assay with OVCAR-3 ovarian was 3.28 µM; with SK-MEL-2 melanoma it was 6.61 µM; in the assay on RXF 393 renal, 3.95 µM; with DU-145 prostate it was 7.77 µM.
As to `CCC[CH2][Sn]([CH2]CCC)([O]C(=O)c1cc(F)ccc1F)[O][Sn]([CH2]CCC)([CH2]CCC)[O]C(=O)c1cc(F)ccc1F`, the GI50 was 0.0702 µM with NCI-H23 lung; 0.899 µM in the assay on HT29 colon; 0.254 µM in the assay with HCT-15 colon; 1.03 µM with SK-OV-3 ovarian; 0.206 µM in the assay with UACC-62 melanoma; 0.0916 µM with RPMI-8226 leukemia. Further, the GI50 with OVCAR-3 ovarian was 0.512 µM; with SK-MEL-2 melanoma it was 0.18 µM; with RXF 393 renal, 0.0472 µM; in the assay on DU-145 prostate, 0.646 µM. Further, the TGI is 0.311 µM in the assay on NCI-H23 lung; 2.21 µM with HT29 colon; 0.87 µM in the assay on HCT-15 colon; 2.34 µM with SK-OV-3 ovarian; 0.665 µM in the assay with UACC-62 melanoma; more than 100 µM in the assay on RPMI-8226 leukemia. The TGI came out at 1.61 µM in the assay with OVCAR-3 ovarian, 0.496 µM with SK-MEL-2 melanoma, 0.191 µM in the assay with RXF 393 renal and 1.92 µM in the assay with DU-145 prostate.

The values are drawn from PubChem BioAssay (NCI).
